In patent US20060069132A1, “Azolecarboxamide herbicides” (priority 2004, published 2006):
Where two headings read alike, the source gives them in different places.

Assays:
giant foxtail = experiment: Test B pre-/postemergence herbicide test; type: in vivo, Setaria faberi; conditions: Setaria faberi, 336 h; for pest or weed control at 125 g/ha: 125 g ai/ha; for pest or weed control at 500 g/ha: 500 g ai/ha
How it was run: (§1)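 Evaluation is visual, comparing treated with control plants on a scale where 0 means no effect and 100 means full control. Treatments were preemergence, or postemergence on seedlings 2–18 cm tall, and held 13–15 days in the greenhouse.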

velvetleaf = experiment: Test B pre-/postemergence herbicide test; type: in vivo, Abutilon theophrasti; conditions: Abutilon theophrasti, 336 h; for pest or weed control at 125 g/ha: 125 g ai/ha; for pest or weed control at 500 g/ha: 500 g ai/ha
How it was run: as §1

large crabgrass = experiment: Test B pre-/postemergence herbicide test; type: in vivo, Digitaria sanguinalis; conditions: Digitaria sanguinalis; for pest or weed control at 125 g/ha: 125 g ai/ha; for pest or weed control at 500 g/ha: 500 g ai/ha
How it was run: as §1

rice = experiment: Test B flooded paddy test; type: in vivo, Oryza sativa; conditions: Oryza sativa, 336 h, 1000 g ai/ha, scale 0 to 100 (0 no effect, 100 complete control), read-out: Rice plant response rating
How it was run: (§2)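 Each value is a visual 0–100 response rating taken against controls 13 to 15 days after treatment in the greenhouse. Plants received formulated chemical postemergence at the 1- to 4-leaf stage or, in flooded paddy, at the 2-leaf stage.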

barnyardgrass [1] = experiment: Test B pre-/postemergence herbicide test; type: in vivo, Echinochloa crus-galli; conditions: Echinochloa crus-galli; for pest or weed control at 125 g/ha: 125 g ai/ha; for pest or weed control at 500 g/ha: 500 g ai/ha
How it was run: as §1

blackgrass = experiment: Test B postemergence herbicide test; type: in vivo, Alopecurus myosuroides; conditions: Alopecurus myosuroides, post-emergence, 336 h, postemergence, visual rating, scale 0 (no effect) to 100 (complete control), read-out: Blackgrass plant response rating
How it was run: as §2

ducksalad = experiment: Test B flooded paddy test; type: in vivo, Heteranthera limosa; conditions: Heteranthera limosa, 336 h, 1000 g ai/ha, scale 0 to 100 (0 no effect, 100 complete control), read-out: Ducksalad plant response rating
How it was run: as §2

morningglory = experiment: Test B pre-/postemergence herbicide test; type: in vivo, Ipomoea coccinea; conditions: Ipomoea, 336 h; for pest or weed control at 125 g/ha: 125 g ai/ha; for pest or weed control at 500 g/ha: 500 g ai/ha
How it was run: as §1

[2] = test system: small flower umbrella sedge; experiment: Test B flooded paddy test; type: in vivo, Cyperus difformis; conditions: Cyperus difformis, 336 h, 1000 g ai/ha, scale 0 to 100 (0 no effect, 100 complete control), read-out: Sedge, Umbrella plant response rating
How it was run: as §2

cocklebur = experiment: Test B pre-/postemergence herbicide test; type: in vivo, Xanthium strumarium; conditions: Xanthium strumarium; for pest or weed control at 125 g/ha: 125 g ai/ha; for pest or weed control at 500 g/ha: 500 g ai/ha
How it was run: as §1

corn = experiment: Test B pre-/postemergence herbicide test; type: in vivo, Zea mays; conditions: Zea mays; for plant injury at 125 g/ha: 125 g ai/ha
How it was run: as §1

wild oat = experiment: Test B postemergence herbicide test; type: in vivo, Avena fatua; conditions: Avena fatua, post-emergence, 336 h, postemergence, read-out: Oat, Wild plant response rating
How it was run: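 Greenhouse test; postemergence application to plants at 1–4 leaves (2–18 cm); paddy species at 2 leaves; evaluated visually vs controls at 13–15 days; scale 0–100 (100 = complete control).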

pigweed = experiment: Test B pre-/postemergence herbicide test; type: in vivo, Amaranthus retroflexus; conditions: Amaranthus retroflexus, 336 h; for pest or weed control at 125 g/ha: 125 g ai/ha; for pest or weed control at 500 g/ha: 500 g ai/ha
How it was run: as §1

barnyardgrass [3] = experiment: Test B flooded paddy test; type: in vivo, Echinochloa crus-galli; conditions: Echinochloa crus-galli, 336 h, 1000 g ai/ha, scale 0 to 100 (0 no effect, 100 complete control), read-out: Barnyardgrass plant response rating
How it was run: as §2

lambsquarters = experiment: Test B pre-/postemergence herbicide test; type: in vivo, Chenopodium album; conditions: Chenopodium album, 336 h; for pest or weed control at 125 g/ha: 125 g ai/ha; for pest or weed control at 500 g/ha: 500 g ai/ha
How it was run: as §1

[4] = post-emergence, postemergence, visual rating, scale 0 (no effect) to 100 (complete control), read-out: Barnyardgrass plant response rating
[5] = post-emergence, postemergence, visual rating, scale 0 (no effect) to 100 (complete control), read-out: Cocklebur plant response rating

For CCNC(=O)c1cc(NC(=O)c2cn(C(C)(C)C)nc2CC)ccc1F [Compound 241, 1-(1,1-dimethylethyl)-3-ethyl-N-[3-[(ethylamino)carbonyl]-4-fluorophenyl]-1H-pyrazole-4-carboxamide], the pest or weed control at 125 g/ha (giant foxtail; post-emergence, postemergence, visual rating, scale 0 (no effect) to 100 (complete control), read-out: Foxtail, Giant plant response rating) was 0%, the pest or weed control at 500 g/ha (giant foxtail; post-emergence, postemergence, scale 0 to 100, 0 is no effect, 100 is complete control, read-out: Foxtail, Giant plant response rating) was 0% and the pest or weed control at 125 g/ha (giant foxtail; pre-emergence, 0 = no effect, 100 = complete control, read-out: Foxtail, Giant plant response rating (0 to 100 scale)) was 10%. For the same compound, the pest or weed control at 500 g/ha (giant foxtail; pre-emergence, visual rating, 0 = no effect, 100 = complete control, read-out: Plant response rating, Foxtail, Giant) was 90%, the pest or weed control at 125 g/ha (velvetleaf; post-emergence, postemergence, visual rating, scale 0 (no effect) to 100 (complete control), read-out: Velvetleaf plant response rating) was 10% and the pest or weed control at 500 g/ha (velvetleaf; post-emergence, postemergence, scale 0 to 100, 0 is no effect, 100 is complete control, read-out: Velvetleaf plant response rating) was 10%. The pest or weed control at 125 g/ha (velvetleaf; pre-emergence, 0 = no effect, 100 = complete control, read-out: Velvetleaf plant response rating (0 to 100 scale)) was 20%, the pest or weed control at 500 g/ha (velvetleaf; pre-emergence, visual rating, 0 = no effect, 100 = complete control, read-out: Plant response rating, Velvetleaf) was 100% and the pest or weed control at 125 g/ha (large crabgrass; post-emergence, postemergence, visual rating, scale 0 (no effect) to 100 (complete control), read-out: Crabgrass, Large plant response rating) was 0%. The pest or weed control at 500 g/ha (large crabgrass; post-emergence, postemergence, scale 0 to 100, 0 is no effect, 100 is complete control, read-out: Crabgrass, Large plant response rating) was 10%, the pest or weed control at 125 g/ha (large crabgrass; pre-emergence, 0 = no effect, 100 = complete control, read-out: Crabgrass, Large plant response rating (0 to 100 scale)) was 90% and the pest or weed control at 500 g/ha (large crabgrass; pre-emergence, visual rating, 0 = no effect, 100 = complete control, read-out: Plant response rating, Crabgrass, Large) was 100%. It also gave a plant injury at 1000 g/ha (rice) of 70%, a pest or weed control at 125 g/ha (barnyardgrass [1]; [4]) of 0% and a pest or weed control at 500 g/ha (barnyardgrass [1]; [4]) of 0%. For the same compound, the pest or weed control at 125 g/ha (barnyardgrass [1]; pre-emergence, 0 = no effect, 100 = complete control, read-out: Barnyardgrass plant response rating (0 to 100 scale)) was 0%, the pest or weed control at 500 g/ha (barnyardgrass [1]; pre-emergence, visual rating, 0 = no effect, 100 = complete control, read-out: Plant response rating, Barnyardgrass) was 80% and the pest or weed control at 125 g/ha (blackgrass; 125 g ai/ha) was 0%. It also gave a pest or weed control at 500 g/ha (blackgrass; 500 g ai/ha) of 10%, a pest or weed control at 1000 g/ha (ducksalad) of 70% and a pest or weed control at 125 g/ha (morningglory; post-emergence, postemergence, visual rating, scale 0 (no effect) to 100 (complete control), read-out: Morningglory plant response rating) of 20%. For the same compound, the pest or weed control at 500 g/ha (morningglory; post-emergence, postemergence, scale 0 to 100, 0 is no effect, 100 is complete control, read-out: Morningglory plant response rating) was 70%, the pest or weed control at 125 g/ha (morningglory; pre-emergence, 0 = no effect, 100 = complete control, read-out: Morningglory plant response rating (0 to 100 scale)) was 0% and the pest or weed control at 500 g/ha (morningglory; pre-emergence, visual rating, 0 = no effect, 100 = complete control, read-out: Plant response rating, Morningglory) was 0%. For the same compound, the pest or weed control at 1000 g/ha [2] was 80%, the pest or weed control at 125 g/ha (cocklebur; [5]) was 20% and the pest or weed control at 500 g/ha (cocklebur; [5]) was 30%. It also gave a pest or weed control at 125 g/ha (cocklebur; pre-emergence, 0 = no effect, 100 = complete control, read-out: Cocklebur plant response rating (0 to 100 scale)) of 0%, a pest or weed control at 500 g/ha (cocklebur; pre-emergence, visual rating, 0 = no effect, 100 = complete control, read-out: Plant response rating, Cocklebur) of 0% and a plant injury at 125 g/ha (corn; post-emergence, postemergence, visual rating, scale 0 (no effect) to 100 (complete control), read-out: Corn plant response rating) of 0%. The plant injury at 500 g/ha (corn; post-emergence, postemergence, 500 g ai/ha, scale 0 to 100, 0 is no effect, 100 is complete control, read-out: Corn plant response rating) was 10%, the plant injury at 125 g/ha (corn; pre-emergence, 0 = no effect, 100 = complete control, read-out: Corn plant response rating (0 to 100 scale)) was 0% and the Corn plant response rating (crop injury, 0 = no effect, 100 = complete kill) at 500 g/ha (corn; pre-emergence, 500 g ai/ha, visual rating, 0 = no effect, 100 = complete control) was 30%. It also gave a pest or weed control at 125 g/ha (wild oat; 125 g ai/ha, visual rating, scale 0 (no effect) to 100 (complete control)) of 0%, a pest or weed control at 500 g/ha (wild oat; 500 g ai/ha, scale 0 to 100, 0 is no effect, 100 is complete control) of 20% and a pest or weed control at 125 g/ha (pigweed; post-emergence, postemergence, visual rating, scale 0 (no effect) to 100 (complete control), read-out: Pigweed plant response rating) of 30%. It also gave a pest or weed control at 500 g/ha (pigweed; post-emergence, postemergence, scale 0 to 100, 0 is no effect, 100 is complete control, read-out: Pigweed plant response rating) of 50%, a pest or weed control at 125 g/ha (pigweed; pre-emergence, 0 = no effect, 100 = complete control, read-out: Pigweed plant response rating (0 to 100 scale)) of 100% and a pest or weed control at 500 g/ha (pigweed; pre-emergence, visual rating, 0 = no effect, 100 = complete control, read-out: Plant response rating, Pigweed) of 100%. For the same compound, the pest or weed control at 1000 g/ha (barnyardgrass [3]) was 80%, the pest or weed control at 125 g/ha (lambsquarters; post-emergence, postemergence, visual rating, scale 0 (no effect) to 100 (complete control), read-out: Lambsquarters plant response rating) was 30% and the pest or weed control at 500 g/ha (lambsquarters; post-emergence, postemergence, scale 0 to 100, 0 is no effect, 100 is complete control, read-out: Lambsquarters plant response rating) was 50%. The pest or weed control at 125 g/ha (lambsquarters; pre-emergence, 0 = no effect, 100 = complete control, read-out: Lambsquarters plant response rating (0 to 100 scale)) was 80% and the pest or weed control at 500 g/ha (lambsquarters; pre-emergence, visual rating, 0 = no effect, 100 = complete control, read-out: Plant response rating, Lambsquarters) was 100%.
